Consider one compound from US9309235B2, “SGC stimulators” (IRONWOOD PHARMACEUTICALS, INC., priority 2012, dated 2016).

For the assay, the system named is Guinea pig tracheal smooth muscle. Nature of the assay: Electrical field stimulated guinea pig tracheal smooth muscle contraction (ex vivo). The conditions noted are these: pooled from three experiments; 95% CI 0.78-0.94; read-out: IC50, inhibition of EFS-induced tracheal smooth muscle contraction. The text has this:
Animals: Guinea pig, Dunkin Hartley, male, Full barrier-bred and certified free of specific micro-organisms on receipt 525-609 g on the experimental day, Harlan UK Ltd. Guinea pigs were housed in a group of 4 in solid-bottomed cages with Gold Flake bedding in a controlled environment (airflow, temperature and humidity). Food (FD1, Special Diet Services) and water were provided ad libitum.
On each experimental day, a guinea pig was killed by exposure to a rising concentration of CO2 and the trachea removed. The trachea was cleaned of extraneous tissue and cut open longitudinally in a line opposite the muscle, opened out and cut into strips 2-3 cartilage rings wide. […] Tissues were washed with Kreb's buffer and stimulated using the previously determined sub-maximal voltage for 1 hour to establish a stable baseline contraction prior to assessment of compound activity. *“Novel and Versatile Superfusion System. […]
A cumulative dose response curve (DRC) to each test substance was then performed and changes in smooth muscle contraction measured. The effect of each test substance in each experiment was expressed as a percentage inhibition of the baseline contraction, normalized to the relevant vehicle controls. […] The data from all three experiments was pooled, the DRC plotted, and the test substance potency and efficacy determined.

Broadly, the IC50 is the concentration that gives 50% inhibition. For `CC(C)[N+]1(C)[C@@H]2CC[C@H]1CC(OC(=O)C(CO)c1ccccc1)C2` (stereo partly shown) [Ipratropium bromide], the IC50 is 0.86 nM.
